Species on record: Rattus norvegicus
Assay: DrugMatrix - Regimen: Daily Repeat
Format: toxicity, organism-based, Sprague-Dawley
Design: regimen Daily Repeat, gender Male, age 6-8 weeks
Details: in vivo, po, route oral GAVAGE, […]; for ABSOLUTE BASOPHIL / ABSOLUTE EOSINOPHIL / ABSOLUTE LYMPHOCYTE / ABSOLUTE MONOCYTE / ABSOLUTE SEGMENTED NEUTROPHIL / BASOPHIL / EOSINOPHIL / ERYTHROCYTE COUNT / HEMATOCRIT / HEMOGLOBIN / LEUKOCYTE COUNT / LYMPHOCYTE / MEAN CORPUSCULAR HEMOGLOBIN / MEAN CORPUSCULAR HEMOGLOBIN CONCENTRATION / MEAN CORPUSCULAR VOLUME / MONOCYTE / NEUTROPHIL / NUCLEATED RED BLOOD CELLS / PLATELET COUNT: tissue Blood; for ALANINE AMINOTRANSFERASE / ALBUMIN / ALKALINE PHOSPHATASE / ASPARTATE AMINOTRANSFERASE / BLOOD UREA NITROGEN / CARBON DIOXIDE / CHLORIDE / CHOLESTEROL / CREATININE / GLUCOSE / LACTATE DEHYDROGENASE / LIPASE / PHOSPHORUS / POTASSIUM / SODIUM / TOTAL BILIRUBIN / TOTAL PROTEIN / URIC ACID: tissue Plasma
[1] = 250 mg/kg, 120 h, dose level Low, time 5 day
[2] = 500 mg/kg, 72 h, dose level High, time 3 day
[3] = 500 mg/kg, 120 h, dose level High, time 5 day

What does the source list for CC(C)Cc1ccc(CC(=O)O)cc1 [IBUFENAC]?
ABSOLUTE BASOPHIL [1]: 0 CELLS/uL; ABSOLUTE EOSINOPHIL [1]: 236.67 CELLS/uL; ABSOLUTE LYMPHOCYTE [1]: 15018.67 CELLS/uL; ABSOLUTE MONOCYTE [1]: 455.33 CELLS/uL; ABSOLUTE SEGMENTED NEUTROPHIL [1]: 1489.33 CELLS/uL; BASOPHIL [1]: 0%; EOSINOPHIL [1]: 1.33%; ERYTHROCYTE COUNT [1]: 5.48 x10E6/uL; HEMATOCRIT [1]: 33.63%; HEMOGLOBIN [1]: 12.33 G/DL; LEUKOCYTE COUNT [1]: 17.2 x10E3/uL; LYMPHOCYTE [1]: 87.33%; MEAN CORPUSCULAR HEMOGLOBIN [1]: 22.5 pg; MEAN CORPUSCULAR HEMOGLOBIN CONCENTRATION [1]: 36.67 G/DL; MEAN CORPUSCULAR VOLUME [1]: 61.4 fL; MONOCYTE [1]: 2.67%; NEUTROPHIL [1]: 8.67%; NUCLEATED RED BLOOD CELLS [1]: 0 /100WBC; PLATELET COUNT [1]: 1124.33 x10E3/uL; ALANINE AMINOTRANSFERASE [1]: 50 u/L; ALBUMIN [1]: 4.2 G/DL; ALKALINE PHOSPHATASE [1]: 391.33 u/L; ASPARTATE AMINOTRANSFERASE [1]: 81 u/L; BLOOD UREA NITROGEN [1]: 16 mg/dL; CARBON DIOXIDE [1]: 28.33 mmol/L; CHLORIDE [1]: 100.33 MEQ/L; CHOLESTEROL [1]: 53.33 mg/dL; CREATININE [1]: 0.16 mg/dL; GLUCOSE [1]: 167.33 mg/dL; LACTATE DEHYDROGENASE [1]: 230 u/L; LIPASE [1]: 9 u/L; PHOSPHORUS [1]: 12.77 mg/dL; POTASSIUM [1]: 6.45 MEQ/L; SODIUM [1]: 142.9 MEQ/L; TOTAL BILIRUBIN [1]: 0.13 mg/dL; TOTAL PROTEIN [1]: 6 G/DL; URIC ACID [1]: 1.5 mg/dL; ABSOLUTE BASOPHIL [2]: 0 CELLS/uL; ABSOLUTE EOSINOPHIL [2]: 218.33 CELLS/uL; ABSOLUTE LYMPHOCYTE [2]: 13655.67 CELLS/uL; ABSOLUTE MONOCYTE [2]: 429.67 CELLS/uL; ABSOLUTE SEGMENTED NEUTROPHIL [2]: 2263 CELLS/uL; BASOPHIL [2]: 0%; EOSINOPHIL [2]: 1.33%; ERYTHROCYTE COUNT [2]: 5.57 x10E6/uL; HEMATOCRIT [2]: 35.13%; HEMOGLOBIN [2]: 12.77 G/DL; LEUKOCYTE COUNT [2]: 16.57 x10E3/uL; LYMPHOCYTE [2]: 82.67%; MEAN CORPUSCULAR HEMOGLOBIN [2]: 22.97 pg; MEAN CORPUSCULAR HEMOGLOBIN CONCENTRATION [2]: 36.33 G/DL; MEAN CORPUSCULAR VOLUME [2]: 63.13 fL; MONOCYTE [2]: 2.67%; NEUTROPHIL [2]: 13.33%; NUCLEATED RED BLOOD CELLS [2]: 0 /100WBC; PLATELET COUNT [2]: 1113.33 x10E3/uL; ALANINE AMINOTRANSFERASE [2]: 92.33 u/L; ALBUMIN [2]: 4.4 G/DL; ALKALINE PHOSPHATASE [2]: 526.33 u/L; ASPARTATE AMINOTRANSFERASE [2]: 107.33 u/L; BLOOD UREA NITROGEN [2]: 14 mg/dL; CARBON DIOXIDE [2]: 27.33 mmol/L; CHLORIDE [2]: 103.67 MEQ/L; CHOLESTEROL [2]: 57 mg/dL; CREATININE [2]: 0.24 mg/dL; GLUCOSE [2]: 142.67 mg/dL; LACTATE DEHYDROGENASE [2]: 159 u/L; LIPASE [2]: 9.67 u/L; PHOSPHORUS [2]: 12.2 mg/dL; POTASSIUM [2]: 7.03 MEQ/L; SODIUM [2]: 148.07 MEQ/L; TOTAL BILIRUBIN [2]: 0.2 mg/dL; TOTAL PROTEIN [2]: 5.93 G/DL; URIC ACID [2]: 1.43 mg/dL; ABSOLUTE BASOPHIL [3]: 0 CELLS/uL; ABSOLUTE EOSINOPHIL [3]: 195.6 CELLS/uL; ABSOLUTE LYMPHOCYTE [3]: 15442.4 CELLS/uL; ABSOLUTE MONOCYTE [3]: 503.4 CELLS/uL; ABSOLUTE SEGMENTED NEUTROPHIL [3]: 1838.6 CELLS/uL; BASOPHIL [3]: 0%; EOSINOPHIL [3]: 1%; ERYTHROCYTE COUNT [3]: 5.64 x10E6/uL; HEMATOCRIT [3]: 33.38%; HEMOGLOBIN [3]: 12.04 G/DL; LEUKOCYTE COUNT [3]: 17.98 x10E3/uL; LYMPHOCYTE [3]: 86.6%; MEAN CORPUSCULAR HEMOGLOBIN [3]: 21.36 pg; MEAN CORPUSCULAR HEMOGLOBIN CONCENTRATION [3]: 36.1 G/DL; MEAN CORPUSCULAR VOLUME [3]: 59.2 fL; MONOCYTE [3]: 2.8%; NEUTROPHIL [3]: 9.6%; NUCLEATED RED BLOOD CELLS [3]: 0 /100WBC; PLATELET COUNT [3]: 1278.6 x10E3/uL; ALANINE AMINOTRANSFERASE [3]: 66 u/L; ALBUMIN [3]: 4.06 G/DL; ALKALINE PHOSPHATASE [3]: 384.8 u/L; ASPARTATE AMINOTRANSFERASE [3]: 92.4 u/L; BLOOD UREA NITROGEN [3]: 12.8 mg/dL; CARBON DIOXIDE [3]: 25.8 mmol/L; CHLORIDE [3]: 102.2 MEQ/L; CHOLESTEROL [3]: 54.2 mg/dL; CREATININE [3]: 0.16 mg/dL; GLUCOSE [3]: 152.8 mg/dL; LACTATE DEHYDROGENASE [3]: 132.4 u/L; LIPASE [3]: 9 u/L; PHOSPHORUS [3]: 12.02 mg/dL; POTASSIUM [3]: 6.28 MEQ/L; SODIUM [3]: 142.86 MEQ/L; TOTAL BILIRUBIN [3]: 0.14 mg/dL; TOTAL PROTEIN [3]: 5.54 G/DL; URIC ACID [3]: 1.78 mg/dL
